The supplement of paper PMC10307832

Key:
Assay in all cases: relative viability (nuclei count vs DMSO), 5 days (fraction); higher = more cells survive
BEN = test system: BEN
In short: (§1)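 Lung cancer cell lines were seeded in 1536-well plates and dosed by pin tool the next day, with either a single drug or a fixed anchor-drug dose combined with five library-drug doses (not always all listed) spaced in √10 steps. Five days later, one step fixed the cells and stained their nuclei (final 0.05% Triton X-100, 1% formaldehyde, 1 ug/ml Hoechst), and nuclei were counted on 4× images. Relative viability is the nuclei count in treated wells divided by the count in vehicle wells, and each value is the median of duplicate plates.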

NCI-H1395 = test system: NCI-H1395
In short: as §1

HCC-366 = test system: HCC-366
In short: as §1

HARA = test system: HARA
In short: as §1

NCI-H2087 = test system: NCI-H2087
In short: as §1

NCI-H2170 = test system: NCI-H2170
In short: as §1

NCI-H2009 = test system: NCI-H2009
In short: as §1

SK-LU-1 = test system: SK-LU-1
In short: as §1

NCI-H2405 = test system: NCI-H2405
In short: as §1

SK-MES-1 = test system: SK-MES-1
In short: as §1

NCI-H661 = test system: NCI-H661
In short: as §1

NCI-H2342 = test system: NCI-H2342
In short: as §1

NCI-H1734 = test system: NCI-H1734
In short: as §1

NCI-H1437 = test system: NCI-H1437
In short: as §1

LOU-NH91 = test system: LOU-NH91
In short: as §1

NCI-H522 = test system: NCI-H522
In short: as §1

NCI-H647 = test system: NCI-H647
In short: as §1

HCC-827 = test system: HCC-827
In short: as §1

EKVX = test system: EKVX
In short: as §1

NCI-H1993 = test system: NCI-H1993
In short: as §1

NCI-H1355 = test system: NCI-H1355
In short: as §1

`CCN(CC)CCCCNc1ncc2cc(-c3cc(OC)cc(OC)c3)c(NC(=O)NC(C)(C)C)nc2n1` + Cc1cc(Nc2cc(N3CCN(C)CC3)nc(Sc3ccc(NC(=O)C4CC4)cc3)n2)n[nH]1 [Tozasertib] (partner 0.1 µM) gave a relative viability (BEN; first compound 0.01 µM) of 0.371, a relative viability (BEN; first compound 0.03162 µM) of 0.508 and a relative viability (BEN; first compound 0.1 µM) of 0.515. The relative viability (BEN; first compound 0.3162 µM) was 0.489, the relative viability (BEN; first compound 1 µM) was 0.507 and the relative viability (NCI-H1395; first compound 0.01 µM) was 0.77. It also gave a relative viability (NCI-H1395; first compound 0.03162 µM) of 0.754, a relative viability (NCI-H1395; first compound 0.1 µM) of 0.785 and a relative viability (NCI-H1395; first compound 0.3162 µM) of 0.695. It also gave a relative viability (NCI-H1395; first compound 1 µM) of 0.547, a relative viability (HCC-366; first compound 0.01 µM) of 0.112 and a relative viability (HCC-366; first compound 0.03162 µM) of 0.135. For the same molecule, the relative viability (HCC-366; first compound 0.1 µM) was 0.102, the relative viability (HCC-366; first compound 0.3162 µM) was 0.107 and the relative viability (HCC-366; first compound 1 µM) was 0.0931. The relative viability (HARA; first compound 0.01 µM) was 0.104, the relative viability (HARA; first compound 0.03162 µM) was 0.122 and the relative viability (HARA; first compound 0.1 µM) was 0.0948. For the same molecule, the relative viability (HARA; first compound 0.3162 µM) was 0.0933, the relative viability (HARA; first compound 1 µM) was 0.0989 and the relative viability (NCI-H2087; first compound 0.01 µM) was 0.243. It also gave a relative viability (NCI-H2087; first compound 0.03162 µM) of 0.282, a relative viability (NCI-H2087; first compound 0.1 µM) of 0.25 and a relative viability (NCI-H2087; first compound 0.3162 µM) of 0.236. It also gave a relative viability (NCI-H2087; first compound 1 µM) of 0.251, a relative viability (NCI-H2170; first compound 0.01 µM) of 0.619 and a relative viability (NCI-H2170; first compound 0.03162 µM) of 0.77. The relative viability (NCI-H2170; first compound 0.1 µM) was 0.747, the relative viability (NCI-H2170; first compound 0.3162 µM) was 0.755 and the relative viability (NCI-H2170; first compound 1 µM) was 0.65. For the same molecule, the relative viability (NCI-H2009; first compound 0.01 µM) was 0.816, the relative viability (NCI-H2009; first compound 0.03162 µM) was 0.72 and the relative viability (NCI-H2009; first compound 0.1 µM) was 0.912. The relative viability (NCI-H2009; first compound 0.3162 µM) was 0.821, the relative viability (NCI-H2009; first compound 1 µM) was 0.573 and the relative viability (SK-LU-1; first compound 0.01 µM) was 0.306. The relative viability (SK-LU-1; first compound 0.03162 µM) was 0.359, the relative viability (SK-LU-1; first compound 0.1 µM) was 0.388 and the relative viability (SK-LU-1; first compound 0.3162 µM) was 0.363. The relative viability (SK-LU-1; first compound 1 µM) was 0.259, the relative viability (NCI-H2405; first compound 0.01 µM) was 0.729 and the relative viability (NCI-H2405; first compound 0.03162 µM) was 0.737. The relative viability (NCI-H2405; first compound 0.1 µM) was 0.699, the relative viability (NCI-H2405; first compound 0.3162 µM) was 0.733 and the relative viability (NCI-H2405; first compound 1 µM) was 0.695. It also gave a relative viability (SK-MES-1; first compound 0.01 µM) of 1.01, a relative viability (SK-MES-1; first compound 0.03162 µM) of 1.02 and a relative viability (SK-MES-1; first compound 0.1 µM) of 1.1. It also gave a relative viability (SK-MES-1; first compound 0.3162 µM) of 1.03, a relative viability (SK-MES-1; first compound 1 µM) of 0.879 and a relative viability (NCI-H661; first compound 0.01 µM) of 0.38. The relative viability (NCI-H661; first compound 0.03162 µM) was 0.327, the relative viability (NCI-H661; first compound 0.1 µM) was 0.366 and the relative viability (NCI-H661; first compound 0.3162 µM) was 0.36. It also gave a relative viability (NCI-H661; first compound 1 µM) of 0.36, a relative viability (NCI-H2342; first compound 0.01 µM) of 0.448 and a relative viability (NCI-H2342; first compound 0.03162 µM) of 0.513. The relative viability (NCI-H2342; first compound 0.1 µM) was 0.476, the relative viability (NCI-H2342; first compound 0.3162 µM) was 0.469 and the relative viability (NCI-H2342; first compound 1 µM) was 0.537. For the same molecule, the relative viability (NCI-H1734; first compound 0.01 µM) was 0.136, the relative viability (NCI-H1734; first compound 0.03162 µM) was 0.257 and the relative viability (NCI-H1734; first compound 0.1 µM) was 0.3. It also gave a relative viability (NCI-H1734; first compound 0.3162 µM) of 0.244, a relative viability (NCI-H1734; first compound 1 µM) of 0.243 and a relative viability (NCI-H1437; first compound 0.01 µM) of 0.426. The relative viability (NCI-H1437; first compound 0.03162 µM) was 0.403, the relative viability (NCI-H1437; first compound 0.1 µM) was 0.374 and the relative viability (NCI-H1437; first compound 0.3162 µM) was 0.46. It also gave a relative viability (NCI-H1437; first compound 1 µM) of 0.335, a relative viability (LOU-NH91; first compound 0.01 µM) of 0.613 and a relative viability (LOU-NH91; first compound 0.03162 µM) of 0.684. It also gave a relative viability (LOU-NH91; first compound 0.1 µM) of 0.697, a relative viability (LOU-NH91; first compound 0.3162 µM) of 0.677 and a relative viability (LOU-NH91; first compound 1 µM) of 0.574. The relative viability (NCI-H522; first compound 0.01 µM) was 0.529, the relative viability (NCI-H522; first compound 0.03162 µM) was 0.604 and the relative viability (NCI-H522; first compound 0.1 µM) was 0.575. For the same molecule, the relative viability (NCI-H522; first compound 0.3162 µM) was 0.49, the relative viability (NCI-H522; first compound 1 µM) was 0.534 and the relative viability (NCI-H647; first compound 0.01 µM) was 0.265. It also gave a relative viability (NCI-H647; first compound 0.03162 µM) of 0.289, a relative viability (NCI-H647; first compound 0.1 µM) of 0.113 and a relative viability (NCI-H647; first compound 0.3162 µM) of 0.332. For the same molecule, the relative viability (NCI-H647; first compound 1 µM) was 0.223, the relative viability (HCC-827; first compound 0.01 µM) was 0.536 and the relative viability (HCC-827; first compound 0.03162 µM) was 0.394. For the same molecule, the relative viability (HCC-827; first compound 0.1 µM) was 0.423, the relative viability (HCC-827; first compound 0.3162 µM) was 0.547 and the relative viability (HCC-827; first compound 1 µM) was 0.396. The relative viability (EKVX; first compound 0.01 µM) was 0.475, the relative viability (EKVX; first compound 0.03162 µM) was 0.383 and the relative viability (EKVX; first compound 0.1 µM) was 0.407. For the same molecule, the relative viability (EKVX; first compound 0.3162 µM) was 0.558, the relative viability (EKVX; first compound 1 µM) was 0.366 and the relative viability (NCI-H1993; first compound 0.01 µM) was 0.621. For the same molecule, the relative viability (NCI-H1993; first compound 0.03162 µM) was 0.608, the relative viability (NCI-H1993; first compound 0.1 µM) was 0.604 and the relative viability (NCI-H1993; first compound 0.3162 µM) was 0.64. It also gave a relative viability (NCI-H1993; first compound 1 µM) of 0.566, a relative viability (NCI-H1355; first compound 0.01 µM) of 0.547 and a relative viability (NCI-H1355; first compound 0.03162 µM) of 0.559. The relative viability (NCI-H1355; first compound 0.1 µM) was 0.52, the relative viability (NCI-H1355; first compound 0.3162 µM) was 0.531 and the relative viability (NCI-H1355; first compound 1 µM) was 0.411.
